Measurements published in US20250049787A1, “TREATMENT FOR ACUTE MYELOID LEUKEMIA OR LYMPHOMA” (UNIVERSITY HEALTH NETWORK, priority 2021, published 2025).
pIC50: −log10 of the molar value. Where a name gives a salt, the structure may show the parent alone.

Key:
FLT3 = molecular target: T1, FLT3 (Homo sapiens, UniProt P36888); experiment: Radiometric HotSpot kinase assay, FLT3; assay type: biochemical; settings: ATP 50 μM; peptide substrate 5 μM
T1 construct: purchased Reaction Biology Corp. (Malvern, PA, USA)
T1 sequence (P36888 27-993): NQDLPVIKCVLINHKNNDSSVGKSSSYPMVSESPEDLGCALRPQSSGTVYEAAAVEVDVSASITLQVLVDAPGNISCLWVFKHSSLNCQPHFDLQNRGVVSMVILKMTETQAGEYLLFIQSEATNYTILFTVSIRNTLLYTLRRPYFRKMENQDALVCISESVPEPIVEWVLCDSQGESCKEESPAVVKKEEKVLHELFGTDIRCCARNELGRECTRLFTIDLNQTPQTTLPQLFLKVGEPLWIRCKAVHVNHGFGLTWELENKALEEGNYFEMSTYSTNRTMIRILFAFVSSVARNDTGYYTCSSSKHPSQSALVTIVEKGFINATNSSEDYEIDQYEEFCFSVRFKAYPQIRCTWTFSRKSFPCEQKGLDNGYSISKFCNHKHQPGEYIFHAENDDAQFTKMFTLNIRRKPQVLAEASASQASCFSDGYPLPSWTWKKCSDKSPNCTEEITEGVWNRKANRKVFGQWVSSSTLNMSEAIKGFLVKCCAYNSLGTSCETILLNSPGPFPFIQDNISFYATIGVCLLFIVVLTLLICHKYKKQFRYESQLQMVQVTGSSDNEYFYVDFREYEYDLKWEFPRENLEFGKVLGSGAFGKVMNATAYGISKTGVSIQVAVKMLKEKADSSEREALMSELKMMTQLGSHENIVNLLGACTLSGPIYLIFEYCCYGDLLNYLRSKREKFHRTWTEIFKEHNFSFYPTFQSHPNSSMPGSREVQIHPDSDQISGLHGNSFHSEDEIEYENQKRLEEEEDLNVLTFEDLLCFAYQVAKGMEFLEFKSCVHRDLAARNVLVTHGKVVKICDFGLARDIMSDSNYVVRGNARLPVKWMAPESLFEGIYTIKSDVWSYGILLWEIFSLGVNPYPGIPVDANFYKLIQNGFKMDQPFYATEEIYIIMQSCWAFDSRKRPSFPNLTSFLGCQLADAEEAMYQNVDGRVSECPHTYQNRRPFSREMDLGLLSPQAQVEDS
Description: (§1) Kinase IC50 values were determined by Reaction Biology Corp. (Malvern, PA, USA) in the Radiometric HotSpot™ Assay using recombinantly expressed kinase enzymes. Compound (I) was tested in a 10-dose IC50 curve in duplicate. Enzymes were tested at the Km [ATP] for each enzyme using the Reaction Biology binning structure. Kinase reactions were initiated by the addition of protein or peptide substrate and [γ-^33P]-adenosine triphosphate (ATP). Phosphorylated substrates were captured by spotting of the reaction mix on filter membranes, and enzymatic activity was quantified by liquid scintillation counting. Substrates and ATP concentrations are as follows: • FLT3: Peptide substrate, [EAIYAAPFAKKK], 5 μM: ATP 50 μM • FLT3-ITD (internal tandem duplication): Peptide substrate, [EAIYAAPFAKKK], 20 μM: ATP, 30 μM • FLT3 (D835Y): Peptide substrate, [EAIYAAPFAKKK], 5 μM: ATP 20 μM • TAK1: Casein, 1 mg/mL: ATP, 20 μM

[1] = molecular target: FLT3-ITD (internal tandem duplication) (Homo sapiens, UniProt P36888); experiment: Radiometric HotSpot kinase assay, FLT3-ITD; assay type: biochemical; settings: ATP 30 μM; peptide substrate 20 μM
Description: as §1

TAK1/MAP3K7 = molecular target: T2, TAK1/MAP3K7 (Homo sapiens, UniProt O43318); experiment: Radiometric HotSpot kinase assay, TAK1; assay type: biochemical; settings: ATP 20 μM; casein 1 mg/mL
T2 construct: purchased Reaction Biology Corp. (Malvern, PA, USA)
T2 sequence (O43318 1-303 limits assumed): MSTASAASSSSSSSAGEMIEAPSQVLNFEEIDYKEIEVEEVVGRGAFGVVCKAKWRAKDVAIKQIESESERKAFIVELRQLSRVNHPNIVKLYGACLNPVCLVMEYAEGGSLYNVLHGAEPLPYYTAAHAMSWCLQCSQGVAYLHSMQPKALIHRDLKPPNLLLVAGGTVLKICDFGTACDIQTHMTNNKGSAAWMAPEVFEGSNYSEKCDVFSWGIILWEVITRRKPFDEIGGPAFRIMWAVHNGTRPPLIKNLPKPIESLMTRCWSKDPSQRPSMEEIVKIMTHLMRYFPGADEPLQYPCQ
Description: as §1

MV-4-11 xenografts = experiment: MV-4-11 xenograft model of human AML in CD-1 Nude mice; assay type: in vivo; settings: for tumor status after 10 days of treatment: established MV-4-11 xenografts
Description: Female 8- to 10-week-old CD-1 Nude mice (Charles River Laboratories) with established MV-4-11 xenografts were treated for 21 days (n=8). MV-4-11 cells is a human AML cell line which endogenously expresses a Fms Related Receptor Tyrosine Kinase 3 (FLT3) internal tandem duplication (ITD) mutation. Animal weights were monitored daily, and tumor volume was measured three times per week. Tumor volume (mm^3) was defined as follows, length×width^2/2. Percentage tumor growth inhibition (% TGI) was defined as follows, 100×[1−(TVf,treated−TVi,treated)/(TVf,control−TVi,control)], where TVf is the average tumor volume at the end of study, and TVi is the average tumor volume at the initiation of treatment. In cases where tumor regression occurred, percentage tumor regression was defined as follows, 100×[1−(TVf,treated/TVi,treated)]. At the completion of the study, the mice were sacrificed by an anesthetic overdose. The Institutional Animal Care and Use Committee of the University Health Network approved all animal procedures. […] Data are represented as mean±SEM. p values were calculated using Student's/test.

[2] = test system: FLT3-ITD-expressing 32D cells (20 ng/ml mouse IL-3); experiment: Growth inhibition, 32D transfectants with mouse IL-3; assay type: cell-based; settings: 32D transfectant FLT3-ITD
Description: Cell lines were obtained from American Type Culture Collection (ATCC) and maintained according to the supplier's instructions, and from Dr. Mark Minden (Princess Margaret Cancer Centre, Toronto, Canada). Short tandem repeat (STR) profiling was used to verify authenticity of the cell lines. Peripheral blood from healthy human donors was obtained from the Hematology Malignancy Tissue Bank at the University Health Network. Peripheral blood mononuclear cells (PBMC) were prepared from the blood by density gradient centrifugation using Ficoll-Paque PLUS by manufacturer's instructions (GE Healthcare Life Sciences). […] Compound (I) tartrate was prepared as a 10 mM stock solution in 100% DMSO. The stock solution was diluted with RPMI-1640 (Invitrogen) containing 10% FBS (fetal bovine serum) such that the final concentrations ranged from 300 fM to 300 μM. Aliquots (20 μL) from each concentration were overlaid to 180 μL of pre-seeded cells to achieve final concentrations of 30 fM to 30 μM. After 3 days, cell growth in each well was assessed by Alamar Blue assay reagent (Invitrogen). Raw fluorescence (λEM=590 nm) values were adjusted by subtracting the average of the baseline readings from untreated cells assessed one day after cell seeding. Relative cell growth was calculated by comparing to DMSO-treated cells. […]

FLT3-ITD maturation = FLT3-ITD maturation in MOLM-14 cells; assay type: cell-based, human; settings: MOLM-14 cells (co-express FLT3-ITD and wild-type FLT3); data not shown
cell surface FLT3-ITD [3] = experiment: Flow cytometry, cell surface FLT3-ITD in MV-4-11 cells; assay type: cell-based, human; settings: 100 nM, 4 hours
Description: MV-4-11 cells were treated with 100 nM Compound (I) tartrate or DMSO control for 4 hours at 37° C. and 5% CO2 and stained with PE-FLT3 (Beckman Coulter, Cat. IM2234U) or an isotype control antibody and analyzed on a BD LSRFortessa II flow cytometry analyzer. Data were analyzed using FlowJo software and representative data are shown. […] Compound (I) tartrate treatment increases the cell surface expression of FLT3-ITD in MV-4-11 cells.

cell surface FLT3-ITD [4] = experiment: Flow cytometry, cell surface FLT3 in primary human AML cells; assay type: cell-based; settings: FLT3-ITD positive primary AML cells, viable CD14− blasts, 48 and 72 hours, dose-dependent
Description: Patient samples were obtained from Dr. Mark Minden (Princess Margaret Cancer Centre, Toronto, Ontario, Canada). FLT3-ITD positive AML cells were treated with the indicated concentrations of Compound (I) for 48 and 72 hours at 37° C. and 5% CO2 and stained with APC-CD45, PECy7-CD38, APC/Fire 750-CD33, PerCP-CD14, PE-FLT3 (Beckman Coulter, Cat. IM2234U), PE/Dazzle 594-CD117 (BioLegend, Cat. #313226) or isotype control antibodies and analyzed on a BD LSRFortessa II flow cytometry analyzer. Data were analyzed using FlowJo software and representative data are shown. Compound (I) treatment increases the cell surface expression of FLT3 and c-KIT in a dose-dependent manner in viable CD14^− AML blast cells. Similar results were obtained in additional FLT3-ITD positive primary AML samples (data not shown).

CN1CCN(c2ccc3nc(-c4c(N)c5ccsc5[nH]c4=O)[nH]c3c2)CC1 [Compound (I) tartrate, 4-amino-5-(6-(4-methylpiperazin-1-yl)-1H-benzo[d]imidazol-2-yl)thieno[2,3-b]pyridin-6(7H)-one]
pIC50 (FLT3): 10.37
pIC50 [1]: 9.89
pIC50 (TAK1/MAP3K7): 7.74
tumor status after 10 days of treatment (MV-4-11 xenografts; 50 mg/kg orally QD): tumors were undetectable
effect on large tumors after 7 days of treatment (MV-4-11 xenografts; 50 mg/kg, large tumors (≅900 mm^3)): complete tumor regression
tumor status after 10 days of treatment (MV-4-11 xenografts; 150 mg/kg orally QD): tumors were undetectable
tolerability (body weight and behavior) (MV-4-11 xenografts; CD-1 Nude mice, 21 days treatment): well tolerated
pIC50 [2]: 5.84
FLT3-ITD maturation (FLT3-ITD maturation): increase
cell surface expression of FLT3-ITD (cell surface FLT3-ITD [3]): increases
cell surface expression of FLT3 (cell surface FLT3-ITD [4]): increases
